Assay results reported in ChEMBL document CHEMBL4425194, “Synthesis and biological evaluation of novel imidazol-1-ylacetic acid derivatives as non-brain penetrant bombesin receptor subtype-3 (BRS-3) agonists” (Bioorg Med Chem Lett, 2016).
In brackets after ≈: the same amount, converted by molar mass. Activity calls are given as the source filed them. The calls are words filed in the database; no cut-off is given here.

Columns and labels:
[1] = Drug uptake in mouse plasma assessed as ratio of active compound to metabolite at 3 mg/kg, iv administered as infusion measured after 30 or 60 mins; format: ADME, organism-based; details: in vivo, 1 h, pooled result: one value given for 2 cell lines, strains, targets or settings
[2] = Drug uptake in mouse brain assessed as active compound level at 3 mg/kg, iv administered as infusion measured after 30 or 60 mins; format: ADME, organism-based; details: 1 h
[3] = Drug uptake in mouse brain assessed as active compound level at 10 mg/kg, iv administered as infusion measured after 30 or 60 mins; format: ADME, organism-based; details: 1 h
[4] = target: T1, Bombesin receptor subtype-3 (Homo sapiens, UniProt P32247); test: Agonist activity at human BRS3 expressed in CHOK1 cells measured after 1 hrs by IP-One HTRF assay; format: cell-based
T1 sequence (P32247 whole entry): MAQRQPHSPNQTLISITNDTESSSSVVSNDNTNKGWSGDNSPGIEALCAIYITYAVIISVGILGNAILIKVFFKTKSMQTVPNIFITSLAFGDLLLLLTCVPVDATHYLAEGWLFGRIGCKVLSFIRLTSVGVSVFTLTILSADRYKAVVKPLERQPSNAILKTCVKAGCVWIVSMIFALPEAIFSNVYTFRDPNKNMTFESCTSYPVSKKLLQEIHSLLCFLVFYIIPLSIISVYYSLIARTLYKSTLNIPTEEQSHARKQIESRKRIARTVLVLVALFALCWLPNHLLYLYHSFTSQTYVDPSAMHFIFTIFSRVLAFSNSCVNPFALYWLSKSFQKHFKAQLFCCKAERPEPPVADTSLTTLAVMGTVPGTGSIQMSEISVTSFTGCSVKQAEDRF

[5] = target: T2, Bombesin receptor subtype-3 (Mus musculus, UniProt O54798); test: Agonist activity at mouse BRS3 expressed in CHOK1 cells measured after 1 hrs by IP-One HTRF assay; format: cell-based
T2 sequence (O54798 whole entry): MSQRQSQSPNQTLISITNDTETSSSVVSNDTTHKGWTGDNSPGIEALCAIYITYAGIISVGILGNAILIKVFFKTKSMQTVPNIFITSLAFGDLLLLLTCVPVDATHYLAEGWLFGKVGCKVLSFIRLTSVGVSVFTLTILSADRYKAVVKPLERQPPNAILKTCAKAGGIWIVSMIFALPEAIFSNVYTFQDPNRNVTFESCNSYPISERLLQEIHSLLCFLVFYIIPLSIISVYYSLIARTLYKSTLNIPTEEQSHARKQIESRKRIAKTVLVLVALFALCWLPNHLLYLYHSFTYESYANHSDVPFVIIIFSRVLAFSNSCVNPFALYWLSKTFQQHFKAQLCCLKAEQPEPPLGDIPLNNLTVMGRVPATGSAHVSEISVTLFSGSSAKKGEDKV

[6] = Drug uptake in mouse brain assessed as metabolite level at 10 mg/kg, iv administered as infusion measured after 30 or 60 mins; format: ADME, organism-based; details: 1 h
[7] = Drug uptake in mouse brain assessed as metabolite level at 3 mg/kg, iv administered as infusion measured after 30 or 60 mins; format: ADME, organism-based; details: 1 h
[8] = Octanol-water distribution coefficient, log D of the compound in PBS buffer at pH 7.4; format: physicochemical
[9] = species: Mus musculus; test: Antiobesity activity in BRS3-deficient C57BL/6N mouse assessed as anorectic effect measured after 1 hr; format: functional, organism-based
[10] = Solubility of the compound in JP2 at pH 6.8; format: physicochemical; details: JP2, pH 6.8
[11] = Solubility of the compound in JP1 at pH 1.2; format: physicochemical; details: JP1, pH 1.2
[12] = Plasma concentration in halothane anesthetized dog at 3 mg/kg/ml, iv measured after 60 mins; format: ADME, organism-based, Canis lupus familiaris
[13] = Fraction unbound in mouse plasma; format: ADME, cell-free
[14] = Cmax in halothane anesthetized dog not showing increase in heart rate at 3 mg/kg/ml, iv measured after 30 mins; format: ADME, organism-based, Canis lupus familiaris; set-up: dose 3 mg/kg, route intravenous; details: in vivo
[15] = system: Mus musculus; test: Antiobesity activity in po dosed C57BL/6N mouse assessed as anorectic effect measured after 1 hr; format: functional, organism-based
[16] = system: Mus musculus; test: Antiobesity activity in C57BL/6N mouse assessed as reduction in food intake at 30 mg/kg, po measured after 1 hr; format: functional; set-up: scale not given: the % may be the effect or the level left
[17] = Plasma concentration in halothane anesthetized dog at 3 mg/kg/ml, iv measured after 30 mins; format: ADME, organism-based, Canis lupus familiaris
[18] = Cmax in halothane anesthetized dog showing 100.9% increase in heart rate at 3 mg/kg/ml, iv measured after 30 mins; format: ADME, organism-based, Canis lupus familiaris; set-up: dose 3 mg/kg, route intravenous; details: in vivo
[19] = Cardiotoxicity in halothane anesthetized dog assessed as effect on blood pressure at 3 mg/kg/ml, iv measured after 30 mins; format: toxicity, organism-based, Canis lupus familiaris; details: in vivo, 0.5 h

Row | Compound | EC50 [4] | EC50 [5] | also measured
1 | COC(=O)c1c(F)cccc1-c1ccc(CCc2ncc(CC(C)(C)C)n2CCC(=O)O)cc1 | 0.001 µM | 0.003 µM | Ratio [1]: 1.3; Kp [2]: 0.02; Kp [3]: 0.02
2 | CC(C)(C)Cc1cnc(CCc2ccc(-c3cccc(F)c3C(=O)O)cc2)n1CCNS(C)(=O)=O | 0.002 µM | 0.004 µM | 
3 | COC(=O)c1c(F)cccc1-c1ccc(CCc2ncc(CC(C)(C)C)n2CCOc2cccc(O)c2)cc1 | 0.013 µM | 0.025 µM | Kp [6]: 0.31; Ratio [1]: 2.49; Kp [7]: 0.31; Kp [2]: 0.05; Kp [3]: 0.05
4 | COC(=O)c1c(F)cccc1-c1ccc(CCc2ncc(CC(C)(C)C)n2CCO)cc1 | 0.021 µM | 0.024 µM | 
5 | COC(=O)c1c(F)cccc1-c1ccc(CCc2ncc(CC(C)(C)C)n2CCNS(C)(=O)=O)cc1 | 0.011 µM | 0.007 µM | Kp [6]: 0.02; Ratio [1]: 2.3; Kp [7]: 0.02; Kp [2]: 0.02; Kp [3]: 0.02
6 | CC(C)(C)Cc1cnc(CCc2ccc(-c3cccc(F)c3C(=O)O)cc2)n1CCOc1cccc(O)c1 | 0.0009 µM | 0.0008 µM | 
7 | COC(=O)c1c(F)cccc1-c1ccc(CCc2ncc(CC(C)(C)C)n2CC(=O)O)cc1 | 0.039 µM | 0.044 µM | logD [8]: 2; Activity [9]: inactive; solubility [10]: 0.37 mg/mL (≈ 818 µM); solubility [11]: 0.73 mg/mL (≈ 1610 µM); concentration at 1 h [12]: 1.14 µM; fraction unbound [13]: 0.0167; Cmax [14]: 44.3 µM; Activity [15]: Dose-dependent effect; Ratio [1]: 1.31; Activity [16]: 20%; concentration at 0.5 h [17]: 28.2 µM; Cmax [18]: 16.8 µM; Activity [19]: Non-Toxic
8 | CCC(C)(C)Cc1cnc(CCc2ccc(-c3ccccn3)cc2)n1CC(=O)O | 0.042 µM | 0.026 µM | 
9 | COC(=O)c1c(F)cccc1-c1ccc(CCc2ncc(CC(C)(C)C)n2Cc2ccc(C(=O)O)cc2)cc1 | 0.003 µM | 0.005 µM | 
10 | COC(=O)c1ccccc1-c1ccc(CCc2ncc(CC(C)(C)C)n2CC(=O)O)cc1 | 0.968 µM | 0.694 µM | 
11 | CCC(C)(C)Cc1cn(CC(=O)O)c(CCc2ccc(-c3ccccn3)cc2)n1 | 4.08 µM | 1.91 µM | 
12 | CC(C)(C)Cc1cnc(CCc2ccc(-c3ccccc3C(=O)O)cc2)n1CC(=O)O | 0.897 µM | 1.27 µM | 
13 | COC(=O)c1ccccc1-c1ccc(CCc2ncc(CC(C)(C)C)[nH]2)cc1 | 0.644 µM | 0.498 µM | 
14 | CC(C)(C)Cc1cnc(CCc2ccc(-c3cccc(F)c3C(=O)O)cc2)n1CC(=O)O | 0.069 µM | 0.14 µM | logD [8]: < -1.8; solubility [10]: > 0.87 mg/mL; solubility [11]: > 0.87 mg/mL; concentration at 1 h [12]: 1.09 µM; fraction unbound [13]: 0.181; Cmax [14]: 38.1 µM; concentration at 0.5 h [17]: 20.1 µM; Cmax [18]: 4.2 µM
15 | CC(C)(C)Cc1cnc(CCc2ccc(-c3cccc(F)c3C(=O)O)cc2)n1CCO | 0.003 µM | 0.002 µM | 
16 | CC(C)(C)Cc1cnc(CCc2ccc(-c3cccc(F)c3C(=O)O)cc2)n1CCC(=O)O | 0.011 µM | 0.061 µM | 
17 | CC(C)(C)Cc1cnc(CCc2ccc(-c3cccc(F)c3C(=O)O)cc2)n1Cc1ccc(C(=O)O)cc1 | 0.012 µM | 0.013 µM | 
18 | COC(=O)C(C)(C)c1ccc(CCc2ncc(CC(C)(C)C)[nH]2)cc1 | 2.23 µM | 9.91 µM | 
19 | COC(=O)C(C)(C)Oc1ccc(CCc2ncc(CC(C)(C)C)[nH]2)cc1 | > 10 µM | 0.621 µM | 
20 | COC(=O)c1ccccc1-c1ccc(CCCc2ncc(CC(C)(C)C)[nH]2)cc1 | > 10 µM | > 10 µM | 
